In data set [1] the target is dopamine D2 receptor (Homo sapiens (Human), UniProt P14416). Description: Radioligand binding assay, [3H]spiperone, membranes of D2 receptor expressing cells. The note with it: [3H]spiperone competition; read-out: Radioligand Binding Affinity (Ki, nM) D2.
Data set [2] deals with D3 (Homo sapiens (Human), UniProt P35462). Description: Radioligand binding affinity, D3.
Data set [3] has as its target α1. The data set is described as follows: Radioligand binding affinity, α1.
Data set [4] addresses 5HT2. The data set is described as follows: Radioligand binding affinity, 5HT2.
The target of data set [5] is 5HT3 (Homo sapiens (Human), UniProt P46098). Description: Radioligand binding affinity, 5HT3.
The target of data set [6] is 5HT4 (Homo sapiens (Human), UniProt Q13639). Description: Radioligand binding affinity, 5HT4.
Data set [7] has as its target H1 (Homo sapiens (Human), UniProt P35367). The data set is described as follows: Radioligand binding affinity, H1.
Data set [8] has as its target hERG channel (Homo sapiens (Human), UniProt Q12809). The data set is described as follows: hERG voltage clamp assay in hERG-expressing cultured cells. In kind it is cell-based. The note with it: for inhibition at 0.1 µM / inhibition at 1 µM / inhibition at 10 µM: human, hERG-expressing cultured cells, read-out: hERG Activity (% Inhibition of Tail Current); for inhibition at 0.1 µM: 100 nM; for IC50: read-out: concentration necessary to inhibit 50% of the tail currents mediated by hERG channels.

Data set [9] relates to canine cardiac action potentials. Description: Canine cardiac action potentials by electrocardiography and telemetry. The format is in vivo. The note with it: dogs; for QTc intervals as compared to vehicle-administered animals: oral gavage. The text has this:
Surgical Implantation of the Telemetry Device and ECG Leads. Anesthesia is introduced to dogs. Balanced gaseous anesthesia is used throughout the surgical procedure. Once anesthetized, animals are shaved and surgically scrubbed, encompassing surgical sites of the right inguinal area, chest and right lateral abdomen. Throughout the surgical procedure, animals are monitored for continuous assessment of vital signs. An incision is made along the right medial thigh and the femoral artery exposed by blunt dissection. Another incision is made in the lateral lumbar area cranial to the iliac crest for a tunneling needle to be passed subcutaneously from the incision on the medial thigh to the lumbar incision. A blood pressure catheter is passed through the needle from the lumbar incision and the needle removed. The femoral artery is ligated distally and incised to insert a catheter that is advanced until the tip resided in the femoral artery/abdominal aorta. The catheter is then secured by ligation. The incision in the lumbar area is enlarged and a subcutaneous pocket created in the left dorsal lumbar area to hold the transmitter body. The transmitter (e.g., Data Sciences International, St Paul, Minn., USA) is inserted into the subcutaneous pocket and secured body. Electrocardiography (ECG) leads are positioned. The incision is closed. Postoperative recovery lasts, e.g., about 2 weeks during which supplemental analgesics/antibiotics are administered as needed. Once the postoperative recovery period is complete, the animal is examined for study acceptability by the staff veterinarian and the implanted transmitter signal verified.
Study Design. […] ECGs, heart rate and arterial blood pressure data are recorded 1 hour prior to and then continuously for at least 6 hours following compound and/or vehicle administration. A blood sample for determination of compound plasma concentrations is collected from all subjects at approximately 6 h post-dose.
ECG Analysis. An ECG waveform morphology assessment, for the entire monitoring period, is completed for each dog by, e.g., a safety pharmacologist or veterinarian cardiologist. Standard ECG intervals (PR, RR, QRS and QT) are automatically measured by the data acquisition system and reported as, e.g., 10 min averages. The signals are collected with Data Sciences International Systems hardware. PR and QT manual overreads are conducted as appropriate. The manual measurements are completed from 50 mm s^−1 tracings at 30 min intervals. A mean of the three waveforms per time point are reported. QT intervals are corrected for heart rate (QTc) values by, e.g., using the formula by Funck-Bretano and Jaillon (1993).
Statistical Analysis. […] Dose-level averages (and accompanying standard deviation (s.d.) of these baseline-adjusted 10 min averages are calculated across study animals. ANOVA (e.g., repeated measures ANOVA) are applied to these baseline-adjusted averages. Pairwise t-tests are applied within the ANOVA to identify the presence of significant differences of the dose levels relative to vehicle. These t-tests are performed at a 0.05/2=0.025 significance level, so that the overall error rate across the comparisons in a given interval are not higher than 0.05. ECG interval data (reported at 30 min intervals) are analyzed using, e.g., repeated-measures ANOVA techniques similar to the systemic blood pressure and heart rate data described above.

A short description of data set [10]: Therapeutic plasma concentrations.
Data set [11] deals with gastric motility in canines. The data set is described as follows: Antral manometry (gastric motility) in canines. In kind it is in vivo, canine. The note with it: for motor dysfunction: canines. The protocol: Animals were fed an ad libitum chow diet (LabDiet®). After an overnight fast, the dogs were anesthetized with Pentothal (sodium thiopental, 11 mg/kg IV; Abbott Laboratories, North Chicago, Ill.) and maintained on 2-4% isoflurane (Abbott Laboratories) in oxygen (1 L/min) carrier gases delivered from a ventilator after endotracheal intubation. A cannula was placed in the jejunum 20 cm distal to the pylorus for the assessment of antral motility. Dogs were allowed to recover in their individual cages for 2 weeks. All experiments were performed after the dogs were completed recovered from the surgical procedure. The study was performed according to the National Institutes of Health Guidelines on the use of laboratory animals and approved by the Animal Care and Use Committee of the University of Texas Medical Branch at Galveston, Tex. To investigate the effect of the drugs on antral manometry, the study of each drug dose was done on three randomized sessions on separate days following the consumption of one can of solid dog food: 1) a Control session: In which animals received the vehicle only; 2) Dose I session: in which the lower dose of the drug was used; and 3) Dose II session: in which the higher dose of the drug was used (please refer to table for drug doses). Drug administration was performed according to Table 4, below. [table] Antral manometry was performed as follows. Following an overnight fast, an intraluminal water-perfused manometry catheter was inserted into the antrum through the jejunal cannula. Antral manometry recording was initiated after the consumption of one can of solid food and continued for 3 hours. The catheter contained 3 manometric sensors at a 1 cm interval. Dogs were given 10 minutes of accommodation, prior to the start of the recording. For data analysis, motility index (MI), defined as the integrated area (area under curve—AUC) between baseline and contractions per hour, was calculated. For statistical analysis, the Student's t-test was used for assessment of individual differences between groups (High dose, low dose of each drug) compared to control—Microsoft® Excel 2002). All values are expressed as mean±SEM. Significance was considered when p value was ≦0.05.

Data set [12] deals with gastric emptying in rats. Description: Solid gastric emptying in rats. In kind it is in vivo, rat (Sprague-Dawley). The note with it: preliminary.
Data set [13] concerns gastric emptying in rats. Description: Solid gastric emptying in rats. In kind it is in vivo, rat (Sprague-Dawley). The protocol:
Animals: […] The animals received a standard laboratory rat chow and tap water ad libitum. The rats were around 400 g at 14 weeks age when used in gastric emptying study. Drugs: S-Carbidopa was purchased from Sigma (#: C1335). Stock solution of S-Carbidopa was prepared at 5 mg/ml using DMSO as solvent. 80 μl stock solution was further diluted into 1 ml distilled water to make 0.4 mg/ml. The effect of S-Carbidopa (1 mg/kg) on solid gastric emptying was studied. Procedures: Male SD rats were involved in this study. Rats were fasted in cages with metal wired mesh for 24 hours with free access to water; S-carbidopa (1 mg/kg) was administered to the rats by oral gavage. Control rats were not administered S-carbidopa. 15 minutes following administration, rats were given access to 2 g of rat chow pellets for ten minutes. All rats completely ingested the chow within the 10 minute time frame. Rats were sacrificed by sodium pentobarbital (100 mg/kg) overdose 90 min after feeding. The stomach was surgically isolated and removed. Gastric contents were recovered from the stomach, air dried for 48 hours and then weighed. Solid gastric emptying was calculated according to the following formula: Gastric emptying (%)=[1−(dried gastric content in g)/2 g]×100. All values are expressed as mean±SEM.

Several values for one entry are separate records, joined by “and”; a condition that tells them apart may be missing. Equal entries are not always repeated.

D3, sequence (P35462 whole entry): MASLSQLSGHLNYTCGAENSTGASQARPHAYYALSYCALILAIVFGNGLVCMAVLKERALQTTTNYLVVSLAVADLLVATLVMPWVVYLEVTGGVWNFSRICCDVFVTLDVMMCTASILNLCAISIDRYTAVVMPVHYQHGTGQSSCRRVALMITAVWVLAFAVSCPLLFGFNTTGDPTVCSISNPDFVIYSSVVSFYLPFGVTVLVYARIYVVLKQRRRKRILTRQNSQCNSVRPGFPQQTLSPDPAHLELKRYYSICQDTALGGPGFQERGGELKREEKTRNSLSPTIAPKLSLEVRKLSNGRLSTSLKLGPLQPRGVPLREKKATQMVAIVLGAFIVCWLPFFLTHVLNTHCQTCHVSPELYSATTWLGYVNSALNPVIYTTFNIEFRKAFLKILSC
hERG channel, sequence (Q12809 whole entry): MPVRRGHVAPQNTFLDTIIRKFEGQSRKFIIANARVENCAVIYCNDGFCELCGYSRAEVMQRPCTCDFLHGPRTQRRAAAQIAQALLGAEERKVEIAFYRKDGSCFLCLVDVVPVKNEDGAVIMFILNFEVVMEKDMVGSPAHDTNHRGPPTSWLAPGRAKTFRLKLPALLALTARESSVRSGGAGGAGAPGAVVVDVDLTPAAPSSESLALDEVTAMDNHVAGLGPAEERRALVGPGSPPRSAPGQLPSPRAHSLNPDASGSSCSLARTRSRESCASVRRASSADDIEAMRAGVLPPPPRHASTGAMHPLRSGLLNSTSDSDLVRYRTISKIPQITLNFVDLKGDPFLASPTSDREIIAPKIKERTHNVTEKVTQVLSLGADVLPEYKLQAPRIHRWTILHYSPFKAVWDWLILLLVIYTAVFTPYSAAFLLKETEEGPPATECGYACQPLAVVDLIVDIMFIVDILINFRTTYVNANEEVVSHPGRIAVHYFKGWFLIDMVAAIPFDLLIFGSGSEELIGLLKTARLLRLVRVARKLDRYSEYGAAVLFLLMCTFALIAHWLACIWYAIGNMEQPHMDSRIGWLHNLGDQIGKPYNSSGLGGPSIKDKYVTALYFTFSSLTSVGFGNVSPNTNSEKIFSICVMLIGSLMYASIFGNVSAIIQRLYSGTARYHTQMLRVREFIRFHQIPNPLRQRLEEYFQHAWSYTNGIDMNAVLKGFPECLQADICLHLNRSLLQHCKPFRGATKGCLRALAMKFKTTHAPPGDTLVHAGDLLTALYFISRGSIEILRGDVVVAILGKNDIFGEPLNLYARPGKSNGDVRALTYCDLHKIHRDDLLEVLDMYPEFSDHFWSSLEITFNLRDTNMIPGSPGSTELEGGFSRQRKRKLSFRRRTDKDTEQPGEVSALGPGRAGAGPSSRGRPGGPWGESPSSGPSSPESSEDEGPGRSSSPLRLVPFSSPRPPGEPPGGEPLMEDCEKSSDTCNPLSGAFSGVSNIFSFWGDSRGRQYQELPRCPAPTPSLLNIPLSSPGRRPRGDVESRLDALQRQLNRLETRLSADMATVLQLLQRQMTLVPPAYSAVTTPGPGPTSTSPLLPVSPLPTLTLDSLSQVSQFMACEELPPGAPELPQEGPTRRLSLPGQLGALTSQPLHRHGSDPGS
dopamine D2 receptor, sequence (P14416 whole entry, species assumed): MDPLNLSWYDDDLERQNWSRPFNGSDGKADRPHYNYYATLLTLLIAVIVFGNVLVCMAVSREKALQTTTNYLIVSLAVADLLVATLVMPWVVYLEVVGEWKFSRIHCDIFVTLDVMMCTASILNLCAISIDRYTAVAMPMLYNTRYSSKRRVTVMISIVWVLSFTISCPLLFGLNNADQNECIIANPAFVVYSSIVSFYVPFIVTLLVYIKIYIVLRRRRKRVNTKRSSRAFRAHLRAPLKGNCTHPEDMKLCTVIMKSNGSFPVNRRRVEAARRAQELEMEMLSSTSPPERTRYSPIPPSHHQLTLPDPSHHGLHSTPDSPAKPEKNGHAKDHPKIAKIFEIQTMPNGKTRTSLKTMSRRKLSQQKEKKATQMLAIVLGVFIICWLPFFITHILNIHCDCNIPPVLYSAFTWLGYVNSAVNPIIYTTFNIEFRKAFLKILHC
5HT3, sequence (P46098 24-478, species assumed): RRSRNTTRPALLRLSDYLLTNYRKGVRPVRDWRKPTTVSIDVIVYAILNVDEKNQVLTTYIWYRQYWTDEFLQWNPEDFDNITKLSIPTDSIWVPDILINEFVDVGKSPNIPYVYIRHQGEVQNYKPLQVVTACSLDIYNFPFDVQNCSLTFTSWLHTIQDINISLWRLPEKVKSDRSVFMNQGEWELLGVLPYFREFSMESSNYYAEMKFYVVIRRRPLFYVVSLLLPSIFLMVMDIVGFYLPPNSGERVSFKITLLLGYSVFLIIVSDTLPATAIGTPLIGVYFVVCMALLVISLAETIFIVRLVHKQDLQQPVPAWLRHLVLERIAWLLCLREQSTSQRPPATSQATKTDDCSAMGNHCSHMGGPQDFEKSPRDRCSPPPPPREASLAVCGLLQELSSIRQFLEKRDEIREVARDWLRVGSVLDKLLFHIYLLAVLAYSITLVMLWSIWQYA
5HT4, sequence (Q13639 whole entry, species assumed): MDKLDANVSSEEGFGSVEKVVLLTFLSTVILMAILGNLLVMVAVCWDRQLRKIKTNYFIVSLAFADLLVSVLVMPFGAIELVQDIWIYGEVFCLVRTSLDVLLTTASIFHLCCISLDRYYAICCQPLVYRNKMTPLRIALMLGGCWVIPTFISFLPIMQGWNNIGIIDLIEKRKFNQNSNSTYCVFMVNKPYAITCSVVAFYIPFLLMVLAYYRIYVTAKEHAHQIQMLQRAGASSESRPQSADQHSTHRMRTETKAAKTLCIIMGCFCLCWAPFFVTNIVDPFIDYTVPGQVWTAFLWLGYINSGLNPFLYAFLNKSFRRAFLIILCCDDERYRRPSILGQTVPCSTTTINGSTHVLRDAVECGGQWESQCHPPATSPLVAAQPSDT
H1, sequence (P35367 whole entry): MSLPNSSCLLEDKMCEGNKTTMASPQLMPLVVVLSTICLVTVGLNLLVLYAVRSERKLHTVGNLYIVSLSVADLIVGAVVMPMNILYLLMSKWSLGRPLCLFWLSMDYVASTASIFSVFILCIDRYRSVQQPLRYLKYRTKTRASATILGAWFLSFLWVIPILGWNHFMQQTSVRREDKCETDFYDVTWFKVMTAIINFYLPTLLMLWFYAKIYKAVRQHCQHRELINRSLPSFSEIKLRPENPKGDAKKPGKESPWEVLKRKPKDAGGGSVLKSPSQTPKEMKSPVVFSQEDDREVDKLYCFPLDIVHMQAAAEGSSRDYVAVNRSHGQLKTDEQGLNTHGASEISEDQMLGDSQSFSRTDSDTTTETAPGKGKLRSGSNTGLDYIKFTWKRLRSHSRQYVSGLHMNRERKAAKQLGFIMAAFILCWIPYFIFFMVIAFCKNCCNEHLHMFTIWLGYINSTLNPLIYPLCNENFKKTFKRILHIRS

A word on the Ki: it is the equilibrium dissociation constant of an inhibitor or competing ligand from its target. `CCN(CC)CCNC(=O)c1cc(Cl)c(N)cc1OC` [Metoclopramide]: the inhibition constant (Ki) in data set [1] amounted to 64 nM; in data set [2], 16 nM.

As usually defined, the inhibition is the relative decrease from the control value, in per cent. On to `CS(=O)(=O)c1ccc2c(c1)N(CCCN1CCC(C(=O)O)CC1)c1ccccc1S2` [Metopimazine acid], for which the Ki in data set [2] is over 100 nM. For the same molecule, the Ki in [3] turned out to be 210 nM. This molecule also returned a Ki in [4] of 370 nM. The “Radioligand Binding Affinity (Ki, nM) 5HT3” value in data set [5] is on record as “Inactive”. For the same molecule, the “Radioligand Binding Affinity (Ki, nM) 5HT4” value in data set [6] is given as “Inactive”. In [7], this molecule returned a Ki of 140 nM. Also, in data set [8], the inhibition at 0.1 µM amounted to 0.2%, the inhibition at 1 µM was determined as 4%, the inhibition at 10 µM stood at 11% and the IC50 is over 10000 nM. Besides, the “QTc intervals as compared to vehicle-administered animals” value in [9] is recorded as “no significant increases”. Also, the Therapeutic plasma concentrations in data set [10] is 300 to 900 nM.

Turning to `CS(=O)(=O)c1ccc2c(c1)N(CCCN1CCC(C(N)=O)CC1)c1ccccc1S2` [Metopimazine, 1-[3-[2-(methylsulfonyl)-10H-phenothiazin-10-yl]propyl]-piperidine-4-carboxamide], the Ki in data set [1] is 0.07 nM; in data set [2], 0.61 nM; in data set [3] it was 1.9 nM; in [4], 15 nM. Besides, in [5], the “Radioligand Binding Affinity (Ki, nM) 5HT3” value is reported as “Inactive”. In addition, in [6], the “Radioligand Binding Affinity (Ki, nM) 5HT4” value is given as “Inactive”. Moreover, the inhibition at 0.1 µM in data set [8] is 4.5%. Moreover, the inhibition at 1 µM in data set [8] is 32%. In [8], the inhibition at 10 µM is 82%. Moreover, the IC50 in [8] is about 3000 nM. Besides, in data set [11], the motor dysfunction entry is given as “no motor dysfunction was observered”. The “QTc intervals as compared to vehicle-administered animals” value in [9] is reported as “no significant increases”. The “increase in gastric emptying as compared to vehicle control” value was “about 40%” in [12] (3 mg/kg); “about 18%” in data set [12] (10 mg/kg); “about 20%” in data set [12] (pooling the 3 mg/kg and 10 mg/kg doses).

Regarding `C[C@@](Cc1ccc(O)c(O)c1)(NN)C(=O)O` [S-Carbidopa, (2S)-3-(3,4-dihydroxyphenyl)-2-hydrazino-2-methylpropanoic acid], in data set [11] (1 mg/kg IV, 15 min prior to meal, vs control, p=0.05), the “motility index (MI), antral manometry” value is recorded as “robustly increased MI in all three of the channels tested”. Further, the motor dysfunction result in [11] was “no motor dysfunction was observered”; in data set [13] (rats), “no motor dysfunction was observed”. The “Gastric emptying (%), mean of the 3 rats” value in [13] (1 mg/kg oral gavage, 90 min after feeding) worked out at 68.2%. Moreover, the “solid gastric emptying compared to control rats” value in data set [13] (1 mg/kg, rats, initial results) is recorded as “improves solid gastric emptying”. The “Gastric emptying (%)” value in data set [13] (individual rat, 1 mg/kg oral gavage, 90 min after feeding) was 55% and 62% and 87.5%. Further, the stomach content in data set [13] (individual rat, 1 mg/kg oral gavage, dried gastric content (g) 90 min after 2 g chow) is 0.9 and 0.76 and 0.25. The “QTc intervals as compared to vehicle-administered animals” value in data set [9] is listed as “no significant increases”.

In the case of `CN(CCOc1ccc(NS(C)(=O)=O)cc1)CCc1ccc(NS(C)(=O)=O)cc1` [dofetilide], in data set [9] (0.3 mg/kg oral gavage), the “incidence of premature ventricular contractions, T-wave abnormalities, and right bundle branch block” value is given as “increases”. The QTc intervals result in [9] (0.3 mg/kg oral gavage, post-dose period of 1-6 hours) is recorded as “increased”.

As to `Cl.NCCc1ccc(O)c(O)c1` [dopamine hydrochloride, Dopamine hydrochloride], the “motility index (MI), antral manometry” value in [11] (50 mg/canine IV, immediately before meal, p=0.06) is reported as “decreased MI in all channels”.

For the origin of these results see patent publication US9132134B2, “Methods for treating GI tract disorders” (Neurogastrx, Inc., priority 2012, dated 2015).
